# Reference: patent publication US20240343720A1, “AAK1 INHIBITOR AND USE THEREOF” (Xizang Haisco Pharmaceutical Co., Ltd., priority 2021, published 2024)
# Target: AAK1 (Homo sapiens (Human), UniProt Q2M2I8)
# Assay: In vitro AAK1 enzyme activity assay (ADP-Glo)
# Format: biochemical
# Details: read-out: Inhibitory activity against AAK1 IC50
# Procedure: Compound stock solution (concentration: 10 mM, dissolved in DMSO) was diluted with DMSO to 0.2 mM and then diluted with DMSO in 5-fold gradient to obtain compound solutions with 10 concentrations. Subsequently, the compound solutions with different concentrations were diluted 50-fold in 1×kinase reaction buffer (containing 40 mM Tris, 20 mM MgCl2, 0.1% BSA and 0.5 mM DTT) for later use. AAK1 (Signalchem, Cat #A01-11G-10) was diluted with 1×kinase reaction buffer to 2-fold the final concentration (final concentrations: 30 nM and 28 nM). AAK1 was added to a 384-well white plate at 2 μL/well, and the compounds were then added at 1 μL/well. The plate was sealed with a plate-sealing film, centrifuged at 1000 rpm for 30 seconds and then placed at room temperature for 10 minutes. A mixed solution of ATP (Promega, Cat #V914B) and substrate Micro2 (GenScript, Cat #PE0890) was formulated at 4-fold the final concentration (for AAK1, the corresponding final concentrations of ATP: 15 μM and 5 μM, and the corresponding final concentration of Micro2: 0.1 mg/mL). To the reaction plate was added the mixed solution of ATP and the substrate at 1 μL/well. The plate was sealed with a plate-sealing film and centrifuged at 1000 rpm for 30 seconds. The reaction was carried out at room temperature for 60 minutes (AAK1). ADP-Glo (Promega, Cat #V9102) was transferred to the 384-well plate at 4 μL/well and centrifugation was carried out at 1000 rpm for 1 minute. The mixture was incubated at 25° C. for 40 minutes. A detection solution was transferred to the 384-well plate at 8 μL/well and centrifugation was carried out at 1000 rpm for 1 minute. The resulting mixture was incubated at 25° C. for 40 minutes. The RLU (Relative luminescence unit) signal values were read using a Biotek multilable microplate reader and the percent inhibition was calculated according to the following formula: [1−(LUMcompound−LUMpositive control)/(LUMnegative control−LUMpositive control)]×100. IC50 values were calculated using Graphpad 7.0 software using a four-parameter non-linear fit equation.
# Chain of AAK1 (Q2M2I8 27-365): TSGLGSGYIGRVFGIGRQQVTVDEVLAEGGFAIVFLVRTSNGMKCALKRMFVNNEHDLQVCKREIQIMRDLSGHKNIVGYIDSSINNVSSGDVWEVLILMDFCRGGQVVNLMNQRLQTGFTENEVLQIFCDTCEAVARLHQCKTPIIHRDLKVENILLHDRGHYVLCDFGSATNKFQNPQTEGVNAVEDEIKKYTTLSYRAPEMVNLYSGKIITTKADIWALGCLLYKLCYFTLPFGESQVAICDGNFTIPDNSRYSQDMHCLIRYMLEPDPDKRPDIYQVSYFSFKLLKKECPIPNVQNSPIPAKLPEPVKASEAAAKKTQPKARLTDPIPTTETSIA
row,SMILES,IC50
1,"CC(N)(COc1ccc(-c2ccnc(C(F)F)c2)nc1C(F)F)CC1(C)CC1 (stereo not drawn) [Compound 2, 1-((2′,6-bis(difluoromethyl)-[2,4′-bipyridin]-5-yl)oxy)-2-methyl-3-(1-methylcyclopropyl) propan-2-amine]",9.29 nM
2,"CC(=O)Nc1cc(-c2ccc(OC[C@@](C)(N)CC(C)(C)F)c(C(F)F)n2)ccn1 [Compound 16, (S)-N-(5-((2-amino-4-fluoro-2,4-dimethylpentyl)oxy)-6-(difluoromethyl)-[2,4′-bipyridin]-2′-yl)acetamide]",22.3 nM
3,"CC(C)(F)CC(C)(N)COc1ccc(-c2ccnc(C(F)F)c2)nc1C(F)F (stereo not drawn) [Compound 1, 1-((2′,6-bis(difluoromethyl)-[2,4′-bipyridin]-5-yl)oxy)-4-fluoro-2,4-dimethylpentan-2-amine]",14.7 nM
4,"CC(=O)Nc1cc(-c2ccc(OC[C@@](C)(N)CC(C)(C)F)c(C#N)c2)ccn1 [Compound 6, (S)-N-(4-(4-((2-amino-4-fluoro-2,4-dimethylpentyl)oxy)-3-cyanophenyl)pyridin-2-yl)acetamide]",11 nM
5,"COC(=O)Nc1cc(-c2cnc(OC[C@@](C)(N)CC(C)(C)F)c(C(F)F)c2)ccn1 [Compound 18, (S)-methyl-(6-((2-amino-4-fluoro-2,4-dimethylpentyl)oxy)-5-(difluoromethyl)-[3,4′-bipyridin]-2′-yl)carbamate]",9.55 nM
6,"C=C(C)C[C@](C)(N)COc1ccc(-c2ccnc(NC(C)=O)c2)nc1C(F)F [Compound 15, (S)-N-(5-((2-amino-2,4-dimethylpent-4-en-1-yl)oxy)-6-(difluoromethyl)-[2,4′-bipyridin]-2′-yl)acetamide]",19.8 nM
7,"C[C@@](N)(COc1ccc(-c2ccnc(C(F)F)c2)nc1C(F)F)CC1CC1 [Compound 26, (S)-1-((2′,6-bis(difluoromethyl)-[2,4′-bipyridin]-5-yl)oxy)-3-cyclopropyl-2-methylpropan-2-amine]",11 nM
8,"C=C(C)C[C@](C)(N)COc1ccc(-c2ccnc(NC(=O)OC)c2)nc1C [Compound 10, Methyl (S)-(5-((2-amino-2,4-dimethylpent-4-en-1-yl)oxy)-6-methyl-[2,4′-bipyridin]-2′-yl)carbamate]",11.5 nM
9,"C=C(C)C[C@](C)(N)COc1ccc(-c2ccnc(NC(C)=O)c2)cc1C#N [Compound 5, (S)-N-(4-(4-((2-amino-2,4-dimethylpent-4-en-1-yl)oxy)-3-cyanophenyl)pyridin-2-yl)acetamide]",6.37 nM
10,"C=C(C)C[C@](C)(N)COc1cnc(-c2ccnc(NC(=O)OC)c2)cc1C(F)(F)F [Compound 7, Methyl-(S)-(5-((2-amino-2,4-dimethylpent-4-en-1-yl)oxy)-4-(trifluoromethyl) [2,4′-bipyridin]-2′-yl)carbamate]",13.8 nM
11,"C=C(C)C[C@](C)(N)COc1ncc(-c2ccnc(NC(=O)OC)c2)cc1C(F)F [Compound 17, (S)-methyl-(6-((2-amino-2,4-dimethylpent-4-en-1-yl)oxy)-5-(difluoromethyl)-[3,4′-bipyridin]-2′-yl)carbamate]",26.8 nM

# The next lines start with the values.
row,IC50,SMILES
1,32.1 nM,"NC1(COc2ccc(-c3ccnc(C(F)F)c3)nc2C(F)F)CCCC1 [Compound 22, 1-(((2′,6-bis(difluoromethyl)-[2,4′-bipyridin]-5-yl)oxy)methyl)cyclopentan-1-amine]"
2,11.9 nM,"C=C(C)C[C@](C)(N)COc1ccc(-c2ccnc(NC(=O)[C@H]3C[C@H]3F)c2)cc1C#N [Compound 25, (1R,2R)-N-(4-(4-(((S)-2-amino-2,4-dimethylpent-4-en-1-yl)oxy)-3-cyanophenyl)pyridin-2-yl)-2-fluorocyclopropane-1-carboxamide]"
3,43.1 nM,"COC(=O)Nc1cc(-c2cc(C(F)(F)F)c(OCC(C)(N)C=C(C)C)cn2)ccn1 (stereo not drawn) [Compound 27, Methyl (5-((2-amino-2,4-dimethylpent-3-en-1-yl)oxy)-4-(trifluoromethyl)-[2,4′-bipyridin]-2′-yl)carbamate]"
4,22.5 nM,"C=C(C)C[C@](C)(N)COc1ccc(-c2ccnc(NC(=O)C3CC(F)(F)C3)c2)cc1C#N [Compound 24, (S)-N-(4-(4-((2-amino-2,4-dimethylpent-4-en-1-yl)oxy)-3-cyanophenyl)pyridin-2-yl)-3,3-difluorocyclobutane-1-carboxamide]"
5,9.08 nM,"C=C(C)C[C@](C)(N)COc1ccc(-c2ccnc(NC(=O)[C@@H]3CC3(F)F)c2)cc1C#N [Compound 30, (1S)-N-(4-(4-{[(2S)-2-amino-2,4-dimethylpent-4-en-1-yl]oxy}-3-cyanophenyl)pyridin-2-yl)-2,2-difluorocyclopropane-1-carboxamide]"
6,11 nM,"C=C(C)C[C@](C)(N)COc1ccc(-c2ccnc(NC(=O)[C@H]3CC3(F)F)c2)cc1C#N [Compound 29, (1R)-N-(4-(4-{[(2S)-2-amino-2,4-dimethylpent-4-en-1-yl]oxy}-3-cyanophenyl)pyridin-2-yl)-2,2-difluorocyclopropane-1-carboxamide]"
7,16.1 nM,"COC(=O)Nc1cc(-c2cc(C(F)F)c(OC[C@@](C)(N)CC(C)(C)F)cn2)ccn1 [Compound 20, Methyl (S)-(5-((2-amino-4-fluoro-2,4-dimethylpentyl)oxy)-4-(difluoromethyl)-[2,4′-bipyridin]-2′-yl)carbamate]"
8,10.9 nM,"COC(=O)Nc1cc(-c2ccc(OC[C@@](C)(N)CC3CC3)c(C(F)F)n2)ccn1 [Compound 31, Methyl (S)-(5-(2-amino-3-cyclopropyl-2-methylpropoxy)-6-(difluoromethyl)-[2,4′-bipyridin]-2′-yl)carbamate]"
9,5.96 nM,"CC(=O)Nc1cc(-c2ccc(OC[C@@](C)(N)CC(C)(O)CO)c(C#N)c2)ccn1 (stereo partly drawn) [Compound 28, N-(4-(4-(((2S)-2-amino-4,5-dihydroxy-2,4-dimethylpentyl)oxy)-3-cyanophenyl)pyridin-2-yl)acetamide]"
10,38.6 nM,"C=C(C)C[C@](C)(N)COc1ccc(-c2ccnc(NC(C)=O)c2)cc1C(N)=O [Compound 23, (S)-5-(2-acetamidopyridin-4-yl)-2-((2-amino-2,4-dimethylpent-4-en-1-yl)oxy)benzamide]"
